Data as given in patent publication US20260060239A1, “NATURAL-BASED SALICYLIC ACID POLY(ANHYDRIDE ESTER) HYDROGELS FOR AGRICULTURAL APPLICATIONS” (The Regents of The University of California, priority 2022, published 2026).
Like-named read-outs stand apart in the source and are kept apart here.

How the values were obtained:
micro-tom tomato plants [1] = conditions: for percent plant growth (plant height) during dosage window: FIG. 9A
Protocol: Exogenous application of salicylic acid favors plants under stress by regulating processes such as photosynthesis, membrane permeability, nutrient uptake, transpiration, and the activity of antioxidant enzymes. […] Final measurements of plant height, water content, root length, and tomato production yield were also performed.
Micro-tom was germinated from seeds under hydroponic conditions and grown under vertical farming conditions. Soilless clay media was used, and smart fertilizer was applied. Plants were incubated under normal conditions for 16 days. Seedlings were then transplanted using pre-wet clay and incubated under normal conditions in Percival chambers with abundant water supply and regular water exchanges for an additional 34 days. The Percival chambers were used to mimic environmental conditions. The day and night cycles were set for 16 hour (day) at 25° C. followed by 8 hour (night) at 25° C. CO2 levels were maintained at 410 ppm with 70% relative humidity.
Each plant was labeled, and initial measurements were taken including plant height, total number of leaves, branches, and total number of flower buds, flowers and tomatoes if applicable. Individual group pictures were taken as visual record and first dose was applied accordantly to the group's requirements and schedules (FIG. 7). Dose regimen was similar between all groups with a total duration of 7 days (Dosage Window). Doses were applied at days 0, 2 and 4 of the dosage window. Remaining water in the group trays were removed right before dose applications. Chemicals were applied as a powder directly in the clay surface avoiding contact with the plant. All plants received 75 mL right after dose application. At day 7, remaining water in the trays were removed, final plants measurements and visual observation was recorded. Death plants were removed from the study. Extra clay and fertilizer were added, and DI-water was applied to all plants: 150 mL to normal plants and 50 mL to drought plants to activate the fertilizer.

micro-tom tomato plants [2] = experiment: Treatment window under drought stress conditions (water supply removed); type: in vivo; conditions: for first death under drought: FIG. 12
Protocol: Plants were incubated under normal conditions for 16 days. […] The Percival chambers were used to mimic environmental conditions.
(§1) All plants received 75 mL right after dose application. […] Death plants were removed from the study.
The treatment window corresponds to the period of time where the groups were exposed to either normal conditions with abundant water supply or to intense drought stress conditions where the water supply was completely removed until plants were found dead. At day 48 of the plant cycle, groups correspondent to the drought condition had all the water removed from the tray and were kept in the chamber. Plants under normal conditions had regularly water exchange two times a week until the end of the plant cycle. All plants were closely monitored, and visible observations were recorded, including measurements of plant height, number of leaves, branches, flower buds, flowers, and tomatoed were taken regularly. Clay and fertilizer were applied as needed and dead plants were removed from the study.

micro-tom tomato plants [3] = type: in vivo
Protocol: The Percival chambers were used to mimic environmental conditions.
as §1
At day 48 of the plant cycle, groups correspondent to the drought condition had all the water removed from the tray and were kept in the chamber. Plants under normal conditions had regularly water exchange two times a week until the end of the plant cycle. All plants were closely monitored, and visible observations were recorded, including measurements of plant height, number of leaves, branches, flower buds, flowers, and tomatoed were taken regularly. Clay and fertilizer were applied as needed and dead plants were removed from the study.
The harvest day was determined by the abundant number of red tomatoes: plant measurements were performed as described above. Plants were removed from their pots and clay was washed out of the roots. Tomatoes were harvested, photographed, and measured (diameter, height and mass). Individual plants were also photographed. Root and plant length was recorded, and plant mass was measured using a scale.

[4] = 3x: three dosages of 0.05 mmol SA

SMILES: O=C(O)c1ccccc1O [SA, salicylic acid]
- percent plant growth (plant height) during dosage window (micro-tom tomato plants [1]; 1x: single dose 0.15 mmol SA or equivalent): negligible
- variation in the number of branches during dosage window (micro-tom tomato plants [1]; 1x: single dose 0.15 mmol, FIG. 9B): decrease
- stress and deaths after the dosage window (micro-tom tomato plants [1]; 1x: single powder dose, 0.15 mmol SA (or equivalent in polymer) per plant, FIG. 8): more harmful
- percent plant growth (plant height) during dosage window (micro-tom tomato plants [1]; [4]): smaller than the DI-water control group
- stress caused during dosage window (micro-tom tomato plants [1]; 3x: three dosages of 0.05 mmol SA, compared with SA 1x): less significative
- plants mortality right after treatment (micro-tom tomato plants [1]; compared with SAPAE): higher
- first death under drought (micro-tom tomato plants [2]; 1x: single dose 0.15 mmol SA or equivalent, day of treatment window): 17 days
- first death under drought (micro-tom tomato plants [2]; [4]): 20 days
- flower production under drought stress (micro-tom tomato plants [2]; 3x, 14 days treatment time point, flower buds, no opened flowers, FIG. 11): second-best group
- plants dead at time of harvest (micro-tom tomato plants [3]; 1x, across the study, FIG. 15): three
- total number of red tomatoes per group (micro-tom tomato plants [3]; 1x, harvest day, FIG. 19B): least number of red tomatoes
- percent plant growth after 14 days (micro-tom tomato plants [3]; 1x, normal conditions, FIG. 10A): lowest percent growth
- variation of number of branches during the treatment window (micro-tom tomato plants [3]; 1x, normal conditions, FIG. 13B): highest variation
- roots holding the clay after removal from the pot (micro-tom tomato plants [3]; 3x, harvest): stronger at holding the clay in place
- total number of tomatoes per group (micro-tom tomato plants [3]; 3x, harvest day, compared with DI water, FIG. 19A): similar
